Assay results: patent US6458951B2, “Pyrazolopyrimidinone cGMP PDE5 inhibitors for the treatment of sexual dysfunction” (Pfizer Inc, priority 1998, dated 2002)
pIC50: −log10 of the molar value.

biological target: cGMP PDE5 (UniProt O76074); assay: Phosphodiesterase (PDE) inhibitory activity, in vitro, cGMP PDE5; format: biochemical, human or rabbit; conditions: in vitro activity as inhibitors of cGMP PDE5
Method: In vitro PDE inhibitory activities against cyclic guanosine 3′,5′-monophosphate (cGMP) and cyclic adenosine 3′,5′-monophosphate (cAMP) phosphodiesterases were determined by measurement of their IC50 values (the concentration of compound required for 50% inhibition of enzyme activity).
The required PDE enzymes were isolated from a variety of sources, including human corpus cavernosum, human and rabbit platelets, human cardiac ventricle, human skeletal muscle and bovine retina, essentially by the method of W. J. Thompson and M. M. Appleman (Biochem., 1971, 10, 311). In particular, the cGMP-specific PDE (PDE5) and the cGMP-inhibited cAMP PDE (PDE3) were obtained from human corpus cavernosum tissue, human platelets or rabbit platelets; the cGMP-stimulated PDE (PDE2) was obtained from human corpus cavernosum; the calcium/calmodulin (Ca/CAM)-dependent PDE (PDE1) from human cardiac ventricle; the cAMP-specific PDE (PDE4) from human skeletal muscle; and the photoreceptor PDE (PDE6) from bovine retina.
Assays were performed using a modification of the “batch” method of W. J. Thompson et al. (Biochem., 1979, 18, 5228).

SMILES | pIC50
CCc1c2nc(-c3cc(S(=O)(=O)N4CCN(CC)CC4)cnc3OCCCOC)[nH]c(=O)c2nn1Cc1ccccn1 [Example 11, 3-Ethyl-5-[5-(4-ethylpiperazin-1-ylsulphonyl)-2-(3-methoxyprop-1-oxy)-pyridin-3-yl]-2-(pyridin-2-yl)methyl-2,6-dihydro-7H-pyrazolo[4,3-d]pyrimidin-7-one] | 8.00
CCCc1nn(Cc2ncccn2)c2c(=O)[nH]c(-c3cc(S(=O)(=O)N4CCN(CC)CC4)cnc3OCCOC)nc12 [Example 48, 5-[5-(4-Ethylpiperazin-1-ylsulphonyl)-2-(2-methoxyethoxy)pyridin-3-yl]-3-n-propyl-1-(pyrimidin-2-yl)methyl-1,6-dihydro-7H-pyrazolo[4,3-d]pyrimidin-7-one] | 8.16
CCc1c2nc(-c3cc(S(=O)(=O)N4CCN(CC)CC4)cnc3OCc3ccccn3)[nH]c(=O)c2nn1C [Example 99, 3-Ethyl-5-[5-(4-ethylpiperazin-1-ylsulphonyl)-2-(pyridin-2-yl)methoxypyridin-3-yl]-2-methyl-2,6-dihydro-7H-pyrazolo[4,3-d]pyrimidin-7-one] | 8.24
CCCc1nn(C)c2c(=O)[nH]c(-c3cc(S(=O)(=O)N4CCN(CC)CC4)cnc3OCc3ccccn3)nc12 [Example 127, 5-{5-(4-Ethylpiperazin-1-ylsulphonyl)-2-[(pyridin-2-yl)methoxy]pyridin-3-yl}-1-methyl-3-n-propyl-1,6-dihydro-7H-pyrazolo[4,3-d]pyrimidin-7-one] | 8.14
CCc1c2nc(-c3cc(S(=O)(=O)N4CCN(CC)CC4)cnc3N3CCCC3)[nH]c(=O)c2nn1Cc1ccccn1 [Example 153] | 8.14
CCc1c2nc(-c3cc(S(=O)(=O)N4CCN(CC)CC4)cnc3O[C@@H]3CCOC3)[nH]c(=O)c2nn1Cc1ccccn1 [Example 18, 3-Ethyl-5-[5-(4-ethylpiperazin-1-ylsulphonyl)-2-(tetrahydrofuran-3(R)-yloxy)pyridin-3-yl]-2-(pyridin-2-yl)methyl-2,6-dihydro-7H-pyrazolo[4,3-d]pyrimidin-7-one] | 8.05
CCCc1c2nc(-c3cc(S(=O)(=O)N4CCN(CC)CC4)cnc3OCC)[nH]c(=O)c2nn1Cc1ncccn1 [Example 43b, 5-[2-Ethoxy-5-(4-ethylpiperazin-1-ylsulphonyl)pyridin-3-yl]-3-n-propyl-2-(pyrimidin-2-yl)methyl-2,6-dihydro-7H-pyrazolo[4,3-d]pyrimidin-7-one] | 8.44
CCCc1c2nc(-c3cc(S(=O)(=O)N4CCN(CC)CC4)cnc3OCCOCC)[nH]c(=O)c2nn1Cc1ccccn1 [Example 10, 5-[2-(2-Ethoxyethoxy)-5-(4-ethylpiperazin-1-ylsulphonyl)pyridin-3-yl]-3-n-propyl-2-(pyridin-2-yl)methyl-2,6-dihydro-7H-pyrazolo[4,3-d]pyrimidin-7-one] | 8.00
CCc1nn(Cc2nccn2C)c2c(=O)[nH]c(-c3cc(S(=O)(=O)N4CCN(CC)CC4)cnc3OCCOC)nc12 [Example 46, 3-Ethyl-5-[5-(4-ethylpiperazin-1-ylsulphonyl)-2-(2-methoxyethoxy)pyridin-3-yl]-1-(1-methylimidazol-2-yl)methyl-1,6-dihydro-7H-pyrazolo[4,3-d]pyrimidin-7-one] | 8.09
CCc1c2nc(-c3cc(S(=O)(=O)N4CCN(CC)CC4)cnc3O[C@H](C)[C@@H](C)OC)[nH]c(=O)c2nn1C [Example 98, 3-Ethyl-5-[5-(4-ethylpiperazin-1-ylsulphonyl)-2-(2-(R)-methoxy-1-(R)-methylpropoxy)pyridin-3-yl]-2-methyl-2,6-dihydro-7H-pyrazolo[4,3-d]pyrimidin-7-one] | 8.15

test system: not given; assay: not given; conditions: not given

SMILES | melting point [°C]
CCc1c2nc(-c3cc(S(=O)(=O)N4CCN(CC)CC4)cnc3OCCOC)[nH]c(=O)c2nn1Cc1ccccn1 (hydrate or solvate) [Example 4, 3-Ethyl-5-[5-(4-ethylpiperazin-1-ylsulphonyl)-2-(2-methoxyethoxy)pyridin-3-yl]-2-(Pyridin-2-yl)methyl-2,6-dihydro-7H-pyrazolo[4,3-d]pyrimidin-7-one] | 139 to 140
